Where “and” joins values, the source holds several entries; their conditions need not be identical. Identical values can stand only once. Toxic doses and inconclusive results are not listed. Rule for the calls: active = survival T/C of 150% or more; inactive = T/C below 125% in these data.
System: P388 leukemia ip, CD2F1 mice, survival T/C
Experiment: NCI In Vivo Anticancer Drug Screen. Data for tumor model P388 Leukemia (intraperitoneal) in CD2F1 (CDF1) mice
Conditions: endpoint: median survival time, higher = longer survival
Summary of the method: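 Mice carrying the transplanted tumor received test compound or vehicle. Survival was recorded in each group, and the value is the treated-group measurement divided by that of the vehicle-treated control group.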

Measured: T/C

CN(Cc1cnc2nc(N)nc(N)c2n1)c1ccc(C(=O)N[C@@H](CCC(=O)O)C(=O)O)cc1
active: dose: 0.25 mg/kg/injection, schedule: Q01DX009 (ip), vehicle: sodium bicarbonate 150 % of control and 154 % of control | dose: 0.32 mg/kg/injection, schedule: Q01DX009 (ip), vehicle: sodium bicarbonate 166 % of control and 168 % of control | dose: 0.38 mg/kg/injection, schedule: Q01DX009 (ip), vehicle: other 163 % of control | dose: 0.38 mg/kg/injection, schedule: Q01DX009 (ip), vehicle: saline 169 % of control | dose: 0.38 mg/kg/injection, schedule: Q## X009 (ip), vehicle: sodium bicarbonate 154 % of control | dose: 0.48 mg/kg/injection, schedule: Q01DX009 (ip), vehicle: sodium bicarbonate 168 % of control | dose: 0.5 mg/kg/injection, schedule: Q01DX009 (ip), vehicle: sodium bicarbonate 176 % of control and 177 % of control | dose: 0.54 mg/kg/injection, schedule: Q01DX009 (ip), vehicle: sodium bicarbonate 175 % of control and 180 % of control | dose: 0.6 mg/kg/injection, schedule: Q01DX009 (ip), vehicle: clinical formulation 164 % of control | dose: 0.62 mg/kg/injection, schedule: Q01DX005 (ip), vehicle: sodium bicarbonate 158 % of control | dose: 0.73 mg/kg/injection, schedule: Q01DX009 (ip), vehicle: sodium bicarbonate 184 % of control | dose: 0.75 mg/kg/injection, schedule: Q01DX005 (ip), vehicle: sodium bicarbonate 166 % of control | dose: 0.75 mg/kg/injection, schedule: Q01DX009 (ip), vehicle: other 195 % of control | dose: 0.75 mg/kg/injection, schedule: Q01DX009 (ip), vehicle: saline 200 % of control | dose: 0.75 mg/kg/injection, schedule: Q01DX015 (ip), vehicle: sodium bicarbonate 186 % of control | dose: 0.75 mg/kg/injection, schedule: Q## X009 (ip), vehicle: sodium bicarbonate 190 % of control | dose: 0.8 mg/kg/injection, schedule: Q01DX009 (ip), vehicle: clinical formulation 164 % of control | dose: 1.0 mg/kg/injection, schedule: Q01DX009 (ip), vehicle: clinical formulation 180 % of control | dose: 1.0 mg/kg/injection, schedule: Q01DX009 (ip), vehicle: sodium bicarbonate 177 % of control and 194 % of control and 195 % of control | dose: 1.0 mg/kg/injection, schedule: Q02DX005 (ip), vehicle: sodium bicarbonate 160 % of control | dose: 1.1 mg/kg/injection, schedule: Q01DX009 (ip), vehicle: sodium bicarbonate 192 % of control | dose: 1.2 mg/kg/injection, schedule: Q01DX009 (ip), vehicle: clinical formulation 189 % of control | dose: 1.25 mg/kg/injection, schedule: Q01DX005 (ip), vehicle: sodium bicarbonate 182 % of control | dose: 1.3 mg/kg/injection, schedule: Q01DX009 (ip), vehicle: sodium bicarbonate 196 % of control | dose: 1.5 mg/kg/injection, schedule: Q01DX005 (ip), vehicle: sodium bicarbonate 182 % of control | dose: 1.75 mg/kg/injection, schedule: Q01DX005 (ip), vehicle: sodium bicarbonate 182 % of control | dose: 2.0 mg/kg/injection, schedule: Q01DX005 (iv), vehicle: sodium bicarbonate 161 % of control | dose: 2.0 mg/kg/injection, schedule: Q02DX005 (ip), vehicle: sodium bicarbonate 163 % of control and 192 % of control | dose: 2.3 mg/kg/injection, schedule: Q04DX003 (ip), vehicle: saline 181 % of control | dose: 2.5 mg/kg/injection, schedule: Q01DX005 (ip), vehicle: sodium bicarbonate 187 % of control | dose: 2.5 mg/kg/injection, schedule: Q01DX006 (ip), vehicle: sodium bicarbonate 179 % of control | dose: 2.5 mg/kg/injection, schedule: Q04DX003 (ip), vehicle: sodium bicarbonate 183 % of control | dose: 3.0 mg/kg/injection, schedule: Q01DX006 (ip), vehicle: sodium bicarbonate 170 % of control | dose: 3.0 mg/kg/injection, schedule: Q02DX005 (ip), vehicle: sodium bicarbonate 182 % of control | dose: 3.5 mg/kg/injection, schedule: Q01DX006 (ip), vehicle: sodium bicarbonate 187 % of control | dose: 4.0 mg/kg/injection, schedule: Q01DX005 (iv), vehicle: sodium bicarbonate 190 % of control | dose: 4.32 mg/kg/injection, schedule: Q04DX003 (ip), vehicle: sodium bicarbonate 171 % of control | dose: 4.5 mg/kg/injection, schedule: Q04DX003 (ip), vehicle: sodium bicarbonate 174 % of control | dose: 4.6 mg/kg/injection, schedule: Q04DX003 (ip), vehicle: saline 204 % of control | dose: 5.0 mg/kg/injection, schedule: Q04DX003 (ip), vehicle: sodium bicarbonate 189 % of control | dose: 5.18 mg/kg/injection, schedule: Q04DX003 (ip), vehicle: sodium bicarbonate 180 % of control | dose: 6.48 mg/kg/injection, schedule: Q04DX003 (ip), vehicle: sodium bicarbonate 182 % of control | dose: 7.2 mg/kg/injection, schedule: Q04DX003 (ip), vehicle: sodium bicarbonate 199 % of control | dose: 7.78 mg/kg/injection, schedule: Q04DX002 (ip), vehicle: sodium bicarbonate 171 % of control | dose: 8.64 mg/kg/injection, schedule: Q04DX003 (ip), vehicle: sodium bicarbonate 201 % of control | dose: 9.0 mg/kg/injection, schedule: Q04DX003 (iv), vehicle: sodium bicarbonate 174 % of control | dose: 9.72 mg/kg/injection, schedule: Q04DX002 (ip), vehicle: sodium bicarbonate 175 % of control | dose: 10.0 mg/kg/injection, schedule: Q04DX004 (ip), vehicle: sodium bicarbonate 189 % of control | dose: 10.8 mg/kg/injection, schedule: Q04DX003 (ip), vehicle: sodium bicarbonate 202 % of control | dose: 13.0 mg/kg/injection, schedule: Q04DX002 (ip), vehicle: sodium bicarbonate 165 % of control | dose: 14.4 mg/kg/injection, schedule: Q04DX003 (ip), vehicle: sodium bicarbonate 181 % of control | dose: 16.2 mg/kg/injection, schedule: Q04DX002 (ip), vehicle: sodium bicarbonate 195 % of control | dose: 18.0 mg/kg/injection, schedule: Q01DX001 (ip), vehicle: sodium bicarbonate 173 % of control | dose: 18.0 mg/kg/injection, schedule: Q04DX003 (iv), vehicle: sodium bicarbonate 194 % of control | dose: 18.4 mg/kg/injection, schedule: Q04DX003 (ip), vehicle: saline 177 % of control | dose: 20.0 mg/kg/injection, schedule: Q04DX004 (ip), vehicle: sodium bicarbonate 189 % of control | dose: 21.6 mg/kg/injection, schedule: Q04DX002 (ip), vehicle: sodium bicarbonate 191 % of control | dose: 25.0 mg/kg/injection, schedule: Q04DX004 (ip), vehicle: sodium bicarbonate 180 % of control | dose: 27.0 mg/kg/injection, schedule: Q04DX002 (ip), vehicle: sodium bicarbonate 201 % of control | dose: 36.0 mg/kg/injection, schedule: Q01DX001 (ip), vehicle: sodium bicarbonate 150 % of control | dose: 36.0 mg/kg/injection, schedule: Q01DX001 (iv), vehicle: sodium bicarbonate 156 % of control | dose: 40.0 mg/kg/injection, schedule: Q01DX001 (ip), vehicle: sodium bicarbonate 150 % of control | dose: 45.0 mg/kg/injection, schedule: Q04DX002 (ip), vehicle: sodium bicarbonate 200 % of control | dose: 72.0 mg/kg/injection, schedule: Q01DX001 (iv), vehicle: sodium bicarbonate 161 % of control | dose: 100.0 mg/kg/injection, schedule: Q01DX001 (ip), vehicle: sodium bicarbonate 158 % of control and 161 % of control | dose: 125.0 mg/kg/injection, schedule: Q01DX001 (ip), vehicle: sodium bicarbonate 166 % of control | dose: 150.0 mg/kg/injection, schedule: Q01DX001 (ip), vehicle: sodium bicarbonate 158 % of control | dose: 200.0 mg/kg/injection, schedule: Q01DX001 (ip), vehicle: sodium bicarbonate 170 % of control | dose: 400.0 mg/kg/injection, schedule: Q01DX001 (ip), vehicle: sodium bicarbonate 181 % of control
inactive: dose: 0.09 mg/kg/injection, schedule: Q01DX009 (ip), vehicle: sodium bicarbonate 120 % of control | dose: 0.18 mg/kg/injection, schedule: Q01DX009 (ip), vehicle: sodium bicarbonate 113 % of control | dose: 0.25 mg/kg/injection, schedule: Q01DX005 (ip), vehicle: sodium bicarbonate 117 % of control | dose: 1.7 mg/kg/injection, schedule: Q01DX009 (ip), vehicle: sodium bicarbonate 106 % of control | dose: 2.0 mg/kg/injection, schedule: Q02DX005 (ip), vehicle: saline 105 % of control | dose: 3.0 mg/kg/injection, schedule: Q01DX015 (ip), vehicle: sodium bicarbonate 110 % of control | dose: 3.0 mg/kg/injection, schedule: Q02DX005 (ip), vehicle: saline 105 % of control | dose: 3.0 mg/kg/injection, schedule: Q## X009 (ip), vehicle: sodium bicarbonate 118 % of control | dose: 3.13 mg/kg/injection, schedule: Q01DX001 (ip), vehicle: sodium bicarbonate 122 % of control | dose: 9.0 mg/kg/injection, schedule: Q04DX003 (ip), vehicle: sodium bicarbonate 116 % of control | dose: 15.0 mg/kg/injection, schedule: Q04DX003 (ip), vehicle: sodium bicarbonate 117 % of control | dose: 18.0 mg/kg/injection, schedule: Q04DX003 (ip), vehicle: sodium bicarbonate 114 % of control | dose: 25.0 mg/kg/injection, schedule: Q04DX002 (ip), vehicle: sodium bicarbonate 115 % of control | dose: 33.3 mg/kg/injection, schedule: Q01DX001 (ip), vehicle: sodium bicarbonate 109 % of control | dose: 36.0 mg/kg/injection, schedule: Q04DX003 (iv), vehicle: sodium bicarbonate 124 % of control | dose: 42.0 mg/kg/injection, schedule: Q04DX002 (ip), vehicle: sodium bicarbonate 105 % of control | dose: 50.0 mg/kg/injection, schedule: Q04DX003 (ip), vehicle: sodium bicarbonate 111 % of control

Source: PubChem BioAssay AID330 (DTP/NCI, 2004)
